The source of these data is ChEMBL document CHEMBL5291721, “A preclinical secondary pharmacology resource illuminates target-adverse drug reaction associations of marketed drugs” (Nat Commun, 2023).

Assay [1] concerns the target Gamma-aminobutyric acid receptor subunit alpha-1 (Rattus norvegicus, UniProt P62813). Type of assay: functional.
In assay [2] the target is Voltage-gated inwardly rectifying potassium channel KCNH2 (Homo sapiens, UniProt Q12809). Type of assay: functional.
Assay [3] concerns the target Sodium-dependent dopamine transporter (Homo sapiens, UniProt Q01959).
The next assay has as its target Prothrombin (Homo sapiens, UniProt P00734). Type of assay: functional.
The target of the next assay is Histamine H3 receptor (Homo sapiens, UniProt Q9Y5N1).
Assay [4] deals with T1, 5-hydroxytryptamine receptor 1A (Homo sapiens, UniProt P08908).
T1 sequence (P08908 whole entry): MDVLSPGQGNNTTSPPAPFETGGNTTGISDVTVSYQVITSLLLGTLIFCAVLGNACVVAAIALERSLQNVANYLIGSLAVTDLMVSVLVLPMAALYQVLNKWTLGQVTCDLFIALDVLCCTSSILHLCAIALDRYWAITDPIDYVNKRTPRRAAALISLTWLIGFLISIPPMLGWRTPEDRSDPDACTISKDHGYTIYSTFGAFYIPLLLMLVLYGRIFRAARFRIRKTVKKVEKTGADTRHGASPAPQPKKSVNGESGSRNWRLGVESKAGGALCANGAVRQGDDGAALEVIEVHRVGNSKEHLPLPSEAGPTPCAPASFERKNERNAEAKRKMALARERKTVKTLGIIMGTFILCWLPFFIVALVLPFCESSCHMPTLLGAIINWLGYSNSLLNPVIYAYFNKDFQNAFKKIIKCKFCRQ

The target in another assay is D(3) dopamine receptor (Homo sapiens, UniProt P35462).
Another assay addresses Acetylcholinesterase (Homo sapiens, UniProt P22303). The assay is classed as functional.
For a further assay, the target named is T2, Progesterone receptor (Homo sapiens, UniProt P06401).
T2 sequence (P06401 whole entry): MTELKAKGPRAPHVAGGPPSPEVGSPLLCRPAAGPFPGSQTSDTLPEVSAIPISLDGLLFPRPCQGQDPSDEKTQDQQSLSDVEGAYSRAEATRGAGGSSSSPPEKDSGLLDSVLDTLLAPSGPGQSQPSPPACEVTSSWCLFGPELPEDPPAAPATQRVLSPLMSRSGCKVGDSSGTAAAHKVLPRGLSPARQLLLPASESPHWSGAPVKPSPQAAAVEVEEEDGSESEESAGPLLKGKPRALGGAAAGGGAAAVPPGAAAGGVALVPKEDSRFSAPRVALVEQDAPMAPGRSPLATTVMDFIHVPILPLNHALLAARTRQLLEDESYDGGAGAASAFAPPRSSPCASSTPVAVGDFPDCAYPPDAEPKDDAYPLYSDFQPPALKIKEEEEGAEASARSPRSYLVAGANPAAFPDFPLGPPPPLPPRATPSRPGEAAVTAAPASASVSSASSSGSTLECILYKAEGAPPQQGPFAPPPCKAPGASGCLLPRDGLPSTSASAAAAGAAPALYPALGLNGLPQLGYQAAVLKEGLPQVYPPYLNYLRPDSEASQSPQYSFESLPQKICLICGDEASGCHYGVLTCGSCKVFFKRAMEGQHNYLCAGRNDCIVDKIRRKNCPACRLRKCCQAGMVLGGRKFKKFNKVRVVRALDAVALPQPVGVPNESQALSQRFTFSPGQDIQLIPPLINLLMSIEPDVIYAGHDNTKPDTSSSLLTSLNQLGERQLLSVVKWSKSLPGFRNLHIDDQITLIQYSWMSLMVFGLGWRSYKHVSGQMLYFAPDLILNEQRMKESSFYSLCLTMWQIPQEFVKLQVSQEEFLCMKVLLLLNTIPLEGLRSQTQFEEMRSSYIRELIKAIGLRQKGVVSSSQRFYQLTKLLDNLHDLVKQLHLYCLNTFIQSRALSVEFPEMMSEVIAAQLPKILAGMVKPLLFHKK

The next assay concerns the target T3, Thromboxane A2 receptor (Homo sapiens, UniProt P21731).
T3 sequence (P21731 whole entry): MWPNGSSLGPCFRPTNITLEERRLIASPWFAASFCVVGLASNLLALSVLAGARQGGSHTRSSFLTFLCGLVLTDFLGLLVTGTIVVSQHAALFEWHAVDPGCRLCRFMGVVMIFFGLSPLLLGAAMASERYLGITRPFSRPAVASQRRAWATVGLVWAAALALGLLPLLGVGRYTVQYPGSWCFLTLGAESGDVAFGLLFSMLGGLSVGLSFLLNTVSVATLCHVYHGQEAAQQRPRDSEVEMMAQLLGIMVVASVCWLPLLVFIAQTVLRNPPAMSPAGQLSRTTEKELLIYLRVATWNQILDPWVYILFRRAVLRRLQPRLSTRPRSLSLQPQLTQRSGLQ
The assay is classed as functional, cell-based.

Assay [5] addresses cGMP-inhibited 3',5'-cyclic phosphodiesterase 3A (Homo sapiens, UniProt Q14432). The assay is classed as functional.
The target of assay [6] is Prostaglandin G/H synthase 1 (Homo sapiens, UniProt P23219). Type of assay: functional.
Note: assay procedure not described here.

Sequence of Gamma-aminobutyric acid receptor subunit alpha-1 (P62813 whole entry): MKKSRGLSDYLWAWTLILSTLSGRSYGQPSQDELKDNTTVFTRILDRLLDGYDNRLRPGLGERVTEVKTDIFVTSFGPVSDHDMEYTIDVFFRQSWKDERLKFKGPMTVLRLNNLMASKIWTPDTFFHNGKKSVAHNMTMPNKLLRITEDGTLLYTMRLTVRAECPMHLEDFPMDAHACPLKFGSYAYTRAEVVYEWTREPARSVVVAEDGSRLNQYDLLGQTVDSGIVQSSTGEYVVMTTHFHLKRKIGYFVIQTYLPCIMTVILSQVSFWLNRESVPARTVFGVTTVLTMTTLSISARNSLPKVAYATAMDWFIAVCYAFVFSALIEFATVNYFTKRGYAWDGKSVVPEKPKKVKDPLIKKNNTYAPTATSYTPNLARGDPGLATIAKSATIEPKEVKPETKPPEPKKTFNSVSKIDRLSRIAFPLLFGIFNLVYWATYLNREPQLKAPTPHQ
Sequence of Sodium-dependent dopamine transporter (Q01959 whole entry): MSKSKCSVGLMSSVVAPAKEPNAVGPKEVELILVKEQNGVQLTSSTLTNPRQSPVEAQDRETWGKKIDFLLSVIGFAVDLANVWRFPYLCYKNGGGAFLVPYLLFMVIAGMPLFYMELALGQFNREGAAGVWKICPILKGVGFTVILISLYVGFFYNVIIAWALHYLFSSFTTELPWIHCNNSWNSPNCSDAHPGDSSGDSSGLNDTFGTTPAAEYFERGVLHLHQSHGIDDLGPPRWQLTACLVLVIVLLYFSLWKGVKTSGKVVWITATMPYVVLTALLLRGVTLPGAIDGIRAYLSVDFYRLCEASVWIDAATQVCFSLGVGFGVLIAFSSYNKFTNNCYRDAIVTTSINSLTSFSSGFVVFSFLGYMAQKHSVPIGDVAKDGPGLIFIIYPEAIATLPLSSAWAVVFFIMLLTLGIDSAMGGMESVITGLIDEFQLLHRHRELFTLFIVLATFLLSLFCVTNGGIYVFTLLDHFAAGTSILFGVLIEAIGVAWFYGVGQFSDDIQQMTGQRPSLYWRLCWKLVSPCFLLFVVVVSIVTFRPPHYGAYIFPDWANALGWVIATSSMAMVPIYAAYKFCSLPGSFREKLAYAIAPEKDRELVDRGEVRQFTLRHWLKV
Sequence of cGMP-inhibited 3',5'-cyclic phosphodiesterase 3A (Q14432 whole entry): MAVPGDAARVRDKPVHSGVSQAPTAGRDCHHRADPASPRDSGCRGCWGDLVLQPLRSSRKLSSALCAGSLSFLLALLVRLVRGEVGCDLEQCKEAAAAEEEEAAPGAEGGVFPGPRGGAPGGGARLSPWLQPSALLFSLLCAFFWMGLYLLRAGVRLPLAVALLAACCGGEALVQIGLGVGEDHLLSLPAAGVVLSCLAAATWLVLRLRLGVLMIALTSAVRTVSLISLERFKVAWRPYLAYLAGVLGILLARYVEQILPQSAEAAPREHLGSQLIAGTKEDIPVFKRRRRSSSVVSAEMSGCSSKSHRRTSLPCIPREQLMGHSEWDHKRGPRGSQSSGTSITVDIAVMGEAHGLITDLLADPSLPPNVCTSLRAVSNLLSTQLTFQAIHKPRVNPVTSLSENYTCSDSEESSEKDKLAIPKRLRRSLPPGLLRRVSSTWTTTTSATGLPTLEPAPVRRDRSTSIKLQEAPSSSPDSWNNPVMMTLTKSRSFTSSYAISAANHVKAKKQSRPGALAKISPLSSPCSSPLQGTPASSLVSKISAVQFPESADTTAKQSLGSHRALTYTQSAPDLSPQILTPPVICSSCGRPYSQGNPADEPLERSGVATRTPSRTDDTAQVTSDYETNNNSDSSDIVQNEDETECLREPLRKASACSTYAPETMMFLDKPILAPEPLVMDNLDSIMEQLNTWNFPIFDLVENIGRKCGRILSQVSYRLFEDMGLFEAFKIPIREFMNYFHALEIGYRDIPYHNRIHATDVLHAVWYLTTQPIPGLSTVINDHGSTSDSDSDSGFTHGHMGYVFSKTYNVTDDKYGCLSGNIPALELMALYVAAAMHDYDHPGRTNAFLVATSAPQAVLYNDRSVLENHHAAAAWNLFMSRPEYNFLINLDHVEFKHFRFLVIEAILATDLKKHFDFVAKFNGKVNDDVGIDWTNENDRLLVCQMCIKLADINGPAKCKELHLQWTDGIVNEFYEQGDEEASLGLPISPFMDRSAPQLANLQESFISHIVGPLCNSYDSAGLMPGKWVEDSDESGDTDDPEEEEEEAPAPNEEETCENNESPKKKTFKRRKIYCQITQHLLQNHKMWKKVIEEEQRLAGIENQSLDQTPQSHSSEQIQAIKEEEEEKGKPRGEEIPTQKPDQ
Sequence of Acetylcholinesterase (P22303 whole entry): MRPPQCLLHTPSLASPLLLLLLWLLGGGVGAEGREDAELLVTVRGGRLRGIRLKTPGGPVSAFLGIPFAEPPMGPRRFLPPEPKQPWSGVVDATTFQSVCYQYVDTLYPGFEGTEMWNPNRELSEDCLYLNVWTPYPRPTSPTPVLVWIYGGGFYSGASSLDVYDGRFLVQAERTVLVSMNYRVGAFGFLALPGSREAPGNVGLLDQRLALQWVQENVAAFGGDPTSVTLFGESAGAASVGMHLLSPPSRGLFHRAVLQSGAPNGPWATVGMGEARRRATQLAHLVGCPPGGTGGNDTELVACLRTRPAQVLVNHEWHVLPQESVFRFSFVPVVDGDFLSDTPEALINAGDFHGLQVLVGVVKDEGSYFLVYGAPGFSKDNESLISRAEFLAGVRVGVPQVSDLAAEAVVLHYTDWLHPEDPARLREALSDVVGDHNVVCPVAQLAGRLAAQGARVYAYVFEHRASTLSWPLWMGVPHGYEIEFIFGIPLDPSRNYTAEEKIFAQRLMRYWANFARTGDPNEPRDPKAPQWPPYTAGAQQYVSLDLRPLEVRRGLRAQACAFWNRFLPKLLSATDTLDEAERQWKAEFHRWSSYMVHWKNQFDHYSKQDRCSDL
Sequence of Voltage-gated inwardly rectifying potassium channel KCNH2 (Q12809 whole entry): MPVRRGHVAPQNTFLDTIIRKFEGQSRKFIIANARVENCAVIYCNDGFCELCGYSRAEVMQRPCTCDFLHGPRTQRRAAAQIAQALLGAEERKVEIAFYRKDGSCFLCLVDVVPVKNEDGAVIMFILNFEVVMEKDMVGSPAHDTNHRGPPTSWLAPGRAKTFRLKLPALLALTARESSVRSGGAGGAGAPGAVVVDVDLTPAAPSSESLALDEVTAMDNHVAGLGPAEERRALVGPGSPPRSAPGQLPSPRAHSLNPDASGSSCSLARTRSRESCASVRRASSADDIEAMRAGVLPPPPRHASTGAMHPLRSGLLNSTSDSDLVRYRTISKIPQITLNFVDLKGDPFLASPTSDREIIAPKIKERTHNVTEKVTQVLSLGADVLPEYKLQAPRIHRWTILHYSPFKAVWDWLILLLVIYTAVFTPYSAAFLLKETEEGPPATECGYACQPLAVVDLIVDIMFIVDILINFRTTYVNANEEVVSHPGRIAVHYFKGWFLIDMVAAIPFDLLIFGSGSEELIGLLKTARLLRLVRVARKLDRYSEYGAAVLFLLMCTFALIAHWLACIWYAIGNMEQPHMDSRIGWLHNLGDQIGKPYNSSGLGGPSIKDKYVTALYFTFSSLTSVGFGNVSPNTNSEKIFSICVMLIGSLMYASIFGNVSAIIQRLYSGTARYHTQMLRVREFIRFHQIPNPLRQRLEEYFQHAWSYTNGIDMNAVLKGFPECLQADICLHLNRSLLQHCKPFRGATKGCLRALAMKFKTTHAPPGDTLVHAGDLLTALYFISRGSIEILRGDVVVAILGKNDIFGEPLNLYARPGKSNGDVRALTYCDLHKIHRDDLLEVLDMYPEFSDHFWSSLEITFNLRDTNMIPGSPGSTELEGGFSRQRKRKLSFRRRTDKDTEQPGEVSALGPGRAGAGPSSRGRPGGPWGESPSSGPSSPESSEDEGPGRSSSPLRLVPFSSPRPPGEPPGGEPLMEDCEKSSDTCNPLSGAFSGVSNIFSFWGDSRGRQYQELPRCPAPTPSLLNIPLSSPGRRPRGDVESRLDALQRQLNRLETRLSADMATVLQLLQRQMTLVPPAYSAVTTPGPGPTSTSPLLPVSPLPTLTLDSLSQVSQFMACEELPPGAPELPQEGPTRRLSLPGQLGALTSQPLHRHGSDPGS
Sequence of Histamine H3 receptor (Q9Y5N1 whole entry): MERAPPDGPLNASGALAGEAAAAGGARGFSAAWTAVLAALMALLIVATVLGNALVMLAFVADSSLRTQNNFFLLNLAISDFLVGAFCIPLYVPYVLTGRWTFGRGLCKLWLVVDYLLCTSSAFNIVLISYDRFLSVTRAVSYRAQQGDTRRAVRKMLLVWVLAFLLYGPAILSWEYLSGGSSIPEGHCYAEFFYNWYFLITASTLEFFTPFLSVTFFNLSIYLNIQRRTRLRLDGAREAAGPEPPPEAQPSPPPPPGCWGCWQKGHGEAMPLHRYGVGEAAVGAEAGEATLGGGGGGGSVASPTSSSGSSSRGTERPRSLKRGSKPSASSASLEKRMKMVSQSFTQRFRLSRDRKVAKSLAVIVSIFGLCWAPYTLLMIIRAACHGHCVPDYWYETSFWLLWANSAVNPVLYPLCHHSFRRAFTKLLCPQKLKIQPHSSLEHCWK
Sequence of D(3) dopamine receptor (P35462 whole entry): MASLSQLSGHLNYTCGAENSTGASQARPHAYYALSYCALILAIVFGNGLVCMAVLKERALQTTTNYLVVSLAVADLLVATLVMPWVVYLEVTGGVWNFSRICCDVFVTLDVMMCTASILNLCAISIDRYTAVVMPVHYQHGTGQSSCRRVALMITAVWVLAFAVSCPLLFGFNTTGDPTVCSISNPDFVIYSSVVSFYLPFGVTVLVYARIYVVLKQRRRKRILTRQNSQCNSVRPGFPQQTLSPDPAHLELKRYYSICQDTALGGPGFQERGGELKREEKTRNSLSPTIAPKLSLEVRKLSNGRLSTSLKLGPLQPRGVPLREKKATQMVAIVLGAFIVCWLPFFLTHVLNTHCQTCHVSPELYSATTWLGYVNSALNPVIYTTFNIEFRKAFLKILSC

With `C[C@@H](NCCCc1cccc(C(F)(F)F)c1)c1cccc2ccccc12`, the AC50 – broadly, the midpoint of the concentration-response curve, whichever way the signal moves – in [1] is above 30 µM; in assay [2], 1.3 µM.

Regarding `Cc1onc(-c2ccccc2)c1-c1ccc(S(N)(=O)=O)cc1` [VALDECOXIB], the AC50 is above 30 µM in assay [3]; above 30 µM at Prothrombin; above 30 µM at Histamine H3 receptor; above 10 µM in [1]; above 30 µM in [4]; above 30 µM on D(3) dopamine receptor. Besides, the AC50 (on Acetylcholinesterase; in assay [2]; at Progesterone receptor; on Thromboxane A2 receptor; in assay [5]) was above 30 µM throughout.

`C[C@]12C=CC(=O)N[C@@H]1CC[C@@H]1[C@@H]2CC[C@]2(C)[C@@H](C(=O)Nc3cc(C(F)(F)F)ccc3C(F)(F)F)CC[C@@H]12` [DUTASTERIDE]: the AC50 in [1] and in [2] was above 30 µM throughout.

For the compound `CN(C)CCc1c[nH]c2ccc(Cn3cncn3)cc12` [RIZATRIPTAN], the AC50 in assay [1] and in assay [2] was above 30 µM in each case.

Consider `Nc1ccc(S(=O)(=O)Nc2nccs2)cc1` [SULFATHIAZOLE], for which the AC50 in [1] was above 10 µM; in assay [2], above 30 µM.

Take `CC1=C(/C=C/C(C)=C/C=C/C(C)=C/C(=O)O)C(C)(C)CCC1` [TRETINOIN]: the AC50 in assay [3] was above 30 µM; on Prothrombin it was above 30 µM; at Histamine H3 receptor, above 30 µM; in assay [4] it was above 30 µM; at D(3) dopamine receptor, 22.6 µM; on Acetylcholinesterase it was above 30 µM. The AC50 at Progesterone receptor is 4.24 µM; at Thromboxane A2 receptor, above 30 µM; in [5], above 30 µM.

`N[C@@H](CC(=O)N1CCn2c(nnc2C(F)(F)F)C1)Cc1cc(F)c(F)cc1F` [SITAGLIPTIN] registered an AC50 in [1] above 30 µM.

Take `CC(S)C(=O)NCC(=O)O` (configuration not stated) [TIOPRONIN]: the AC50 in assay [1] and in assay [2] was above 30 µM in each case.

With `COc1ccc(CC2c3cc(OC)c(OC)cc3CC[N+]2(C)CCC(=O)OCCCCCOC(=O)CC[N+]2(C)CCc3cc(OC)c(OC)cc3C2Cc2ccc(OC)c(OC)c2)cc1OC` (configuration not stated), the values for the AC50 in assay [1] and in assay [2] were above 30 µM and 0.16 µM, respectively.

`CC(C)(C)NCC(O)c1cc(O)cc(O)c1` (configuration not stated) [TERBUTALINE] registered an AC50 in assay [2] above 30 µM.

In the case of `C[C@H]1O[C@@H](n2cc(F)c(=O)[nH]c2=O)[C@H](O)[C@@H]1O` [DOXIFLURIDINE], the AC50 (in [3]; at Prothrombin; on Histamine H3 receptor; in assay [4]; in [6]; at D(3) dopamine receptor) was above 30 µM in each case. The AC50 (on Acetylcholinesterase; in [2]; at Progesterone receptor; on Thromboxane A2 receptor; in assay [5]) was above 30 µM each time.

As for `CC(N)C12CC3CC(CC(C3)C1)C2` (configuration not stated) [RIMANTADINE], the AC50 in assay [1] was above 10 µM; in [2], above 30 µM.

`O=C1CCc2cc(OCCCCc3nnnn3C3CCCCC3)ccc2N1` [CILOSTAZOL]: the AC50 in [1] and in assay [2] was above 30 µM each time.

For the compound `CCN(CC)CCNC(=O)c1c(C)[nH]c(/C=C2\C(=O)Nc3ccc(F)cc32)c1C` [SUNITINIB], the AC50 in assay [1] is above 30 µM.

For the compound `COc1ccccc1Oc1c(NS(=O)(=O)c2ccc(C(C)(C)C)cc2)nc(-c2ncccn2)nc1OCCO` [BOSENTAN], the AC50 is above 10 µM in assay [1] and above 30 µM in assay [2].

Regarding `O=C1CN(/N=C/c2ccc(-c3ccc([N+](=O)[O-])cc3)o2)C(O)=N1` [DANTROLENE], the values for the AC50 in [1] and in assay [2] were above 10 µM and above 30 µM, respectively.

Consider `CC(C(=O)O)c1ccc2c(c1)[nH]c1ccc(Cl)cc12` (configuration not stated) [CARPROFEN], for which the AC50 was above 10 µM in [1] and above 30 µM in assay [2].

With `C[C@H]1c2cccc(O)c2C(=O)C2=C(O)[C@]3(O)C(=O)C(C(N)=O)=C(O)[C@@H](N(C)C)[C@@H]3[C@@H](O)[C@@H]21` [DOXYCYCLINE], the AC50 in assay [1] is above 10 µM; in [2], above 30 µM.

For the compound `CC(C)N(CCC(C(N)=O)(c1ccccc1)c1ccccn1)C(C)C` (configuration not stated) [DISOPYRAMIDE], the AC50 in assay [1] is above 10 µM.

In the case of `CCN1CCN(Cc2ccc(Nc3ncc(F)c(-c4cc(F)c5nc(C)n(C(C)C)c5c4)n3)nc2)CC1` [ABEMACICLIB], the AC50 in [1] was above 30 µM; in assay [2] it was 6 µM.

`CC(C)Cc1ccc(C(C)C(=O)O)cc1` (configuration not stated) [IBUPROFEN]: the AC50 in assay [3] was above 30 µM; on Prothrombin, above 30 µM; on Histamine H3 receptor, above 30 µM; in assay [1], above 10 µM; in assay [4], above 30 µM; on D(3) dopamine receptor it was above 30 µM. For the same compound, the AC50 (on Acetylcholinesterase; on Progesterone receptor; on Thromboxane A2 receptor; in assay [5]) was above 30 µM throughout.

The compound `CN(C)CC[C@@H](c1ccc(Cl)cc1)c1ccccn1` [DEXCHLORPHENIRAMINE] registered an AC50 in [1] above 30 µM.

Regarding `COc1ccccc1OCCNCC(O)COc1cccc2[nH]c3ccccc3c12` (configuration not stated) [CARVEDILOL], the AC50 in assay [1] is above 10 µM.

Consider `O=C1C(CC[S+]([O-])c2ccccc2)C(=O)N(c2ccccc2)N1c1ccccc1` (configuration not stated) [SULFINPYRAZONE], for which the AC50 was above 10 µM in assay [1] and above 30 µM in [2].

In the case of `C[C@H](CCC(=O)O)[C@H]1CC[C@H]2[C@@H]3[C@@H](O)C[C@@H]4C[C@H](O)CC[C@]4(C)[C@H]3CC[C@]12C` [URSODIOL], the AC50 in assay [1] and in assay [2] was above 30 µM each time.

On to `CC(C)c1nc(N(C)S(C)(=O)=O)nc(-c2ccc(F)cc2)c1/C=C/[C@@H](O)C[C@@H](O)CC(=O)O` [ROSUVASTATIN], for which the AC50 in [1] and in assay [2] was above 30 µM throughout.

For the compound `C=CC[C@@H]1/C=C(\C)C[C@H](C)C[C@H](OC)[C@H]2O[C@@](O)(C(=O)C(=O)N3CCCC[C@H]3C(=O)O[C@H](/C(C)=C/[C@@H]3CC[C@@H](O)[C@H](OC)C3)[C@H](C)[C@@H](O)CC1=O)[C@H](C)C[C@@H]2OC` [TACROLIMUS ANHYDROUS], the AC50 in [1] and in [2] was above 30 µM throughout.

`CO[C@H]1/C=C/O[C@@]2(C)Oc3c(C)c(O)c4c(O)c(c(/C=N/N5CCN(C)CC5)c(O)c4c3C2=O)NC(=O)/C(C)=C\C=C\[C@H](C)[C@H](O)[C@@H](C)[C@@H](O)[C@@H](C)[C@H](OC(C)=O)[C@@H]1C` [RIFAMPIN]: the AC50 in assay [1] and in assay [2] was above 30 µM in each case.

In turn, `CN(C)CCC[C@@]1(c2ccc(F)cc2)OCc2cc(C#N)ccc21` [ESCITALOPRAM] had an AC50 in assay [1] above 30 µM.

Consider `CN1C[C@H](C(=O)N[C@]2(C)O[C@@]3(O)[C@@H]4CCCN4C(=O)[C@H](Cc4ccccc4)N3C2=O)C=C2c3cccc4[nH]cc(c34)C[C@H]21` [ERGOTAMINE], for which the AC50 in assay [1] is above 30 µM; in [2], 14.4 µM.

On to `C[C@@H](Oc1cc(-c2cnn(C3CCNCC3)c2)cnc1N)c1c(Cl)ccc(F)c1Cl` [CRIZOTINIB], for which the AC50 in [1] is above 30 µM.
